Laboratory results taken from US20150252047A1, “SUBSTITUTED INDAZOL-PYRROLOPYRIMIDINES USEFUL IN THE TREATMENT OF HYPERPROLIFERATIVE DISEASES” (BAYER PHARMA AKTIENGESELLSCHAFT, priority 2012, published 2015).

biological target: T1, human full-length MKNK1 (Homo sapiens, UniProt Q9BUB5, T385D); experiment: MKNK1 kinase high ATP assay (TR-FRET); type: biochemical; details: high ATP (2 mM final), 15 min preincubation with enzyme, 30 min reaction at 22° C.
T1 construct: GST (N); purchased Carna Biosciences 02-145; host or cells: insect cells (baculovirus expression system)
T1 sequence (Q9BUB5 1-424 isoform Q9BUB5-2 T344D): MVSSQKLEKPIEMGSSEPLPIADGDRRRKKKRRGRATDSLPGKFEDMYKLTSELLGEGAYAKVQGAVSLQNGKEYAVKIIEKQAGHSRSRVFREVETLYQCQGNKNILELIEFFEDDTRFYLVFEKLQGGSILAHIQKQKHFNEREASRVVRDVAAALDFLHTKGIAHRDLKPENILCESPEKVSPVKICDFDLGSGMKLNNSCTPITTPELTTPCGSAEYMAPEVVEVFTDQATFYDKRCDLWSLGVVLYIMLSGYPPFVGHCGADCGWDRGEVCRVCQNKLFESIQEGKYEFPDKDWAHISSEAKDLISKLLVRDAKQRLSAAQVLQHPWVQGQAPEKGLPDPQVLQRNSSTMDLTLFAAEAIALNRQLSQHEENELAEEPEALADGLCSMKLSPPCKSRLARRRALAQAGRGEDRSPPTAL
Procedure: MKNK1-inhibitory activity at high ATP of compounds of the present invention after their preincubation with MKNK1 was quantified employing the TR-FRET-based MKNK1 high ATP assay as described in the following paragraphs.
A recombinant fusion protein of Glutathione-S-Transferase (GST, N-terminally) and human full-length MKNK1 (amino acids 1-424 and T344D of accession number BAA 19885.1), expressed in insect cells using baculovirus expression system and purified via glutathione sepharose affinity chromatography, was purchased from Carna Biosciences (product no 02-145) and used as enzyme. As substrate for the kinase reaction the biotinylated peptide biotin-Ahx-IKKRKLTRRKSLKG (C-terminus in amide form) was used, which can be purchased e.g. from the company Biosyntan (Berlin-Buch, Germany).
For the assay 50 nL of a 100 fold concentrated solution of the test compound in DMSO was pipetted into a black low volume 384 well microtiter plate (Greiner Bio-One, Frickenhausen, Germany), 2 μL of a solution of MKNK1 in aqueous assay buffer [50 mM HEPES pH 7.5, 5 mM MgCl2, 1.0 mM dithiothreitol, 0.005% (v/v) Nonidet-P40 (Sigma)] was added and the mixture was incubated for 15 min at 22° C. to allow pre-binding of the test compounds to the enzyme before the start of the kinase reaction. Then the kinase reaction was started by the addition of 3 μL of a solution of adenosine-tri-phosphate (ATP, 3.3 mM=>final conc. in the 5 μL assay volume is 2 mM) and substrate (0.1 μM=>final conc. in the 5 μL assay volume is 0.06 μM) in assay buffer and the resulting mixture was incubated for a reaction time of 30 min at 22° C. The concentration of MKNK1 was adjusted depending of the activity of the enzyme lot and was chosen appropriate to have the assay in the linear range, typical concentrations were in the range of 0.003 μg/mL. The reaction was stopped by the addition of 5 μL of a solution of TR-FRET detection reagents (5 nM streptavidine-XL665 [Cisbio Bioassays, Codolet, France] and 1 nM anti-ribosomal protein S6 (pSer236)-antibody from Invitrogen [#44921G] and 1 nM LANCE EU-W1024 Labeled ProteinG [Perkin-Elmer, product no. AD0071]) in an aqueous EDTA-solution (100 mM EDTA, 0.1% (w/v) bovine serum albumin in 50 mM HEPES pH 7.5).
The resulting mixture was incubated for 1 h at 22° C. to allow the formation of complex between the phosphorylated biotinylated peptide and the detection reagents. Subsequently the amount of phosphorylated substrate was evaluated by measurement of the resonance energy transfer from the Eu-chelate to the streptavidine-XL. Therefore, the fluorescence emissions at 620 nm and 665 nm after excitation at 350 nm were measured in a TR-FRET reader, e.g. a Rubystar (BMG Labtechnologies, Offenburg, Germany) or a Viewlux (Perkin-Elmer). The ratio of the emissions at 665 nm and at […] was taken as the measure for the amount of phosphorylated substrate. The data were normalised (enzyme reaction without inhibitor=0% inhibition, all other assay components but no enzyme=100% inhibition).

IC50	SMILES
14 nM	O=C(O)c1c[nH]c2ncnc(Nc3cc4cn[nH]c4cc3F)c12 [Example 10, 4-[(6-Fluoro-1H-indazol-5-yl)amino]-7H-pyrrolo[2,3-d]pyrimidine-5-carboxylic acid]
2 nM	CCCc1[nH]c2ncnc(Nc3cc4cn[nH]c4cc3OC)c2c1CC [Example 46, 5-Ethyl-N-(6-methoxy-1H-indazol-5-yl)-6-propyl-7H-pyrrolo[2,3-d]pyrimidin-4-amine]
3 nM	CCc1[nH]c2ncnc(Nc3cc4cn[nH]c4cc3OC)c2c1C [Example 1, 6-Ethyl-N-(6-methoxy-1H-indazol-5-yl)-5-methyl-7H-pyrrolo[2,3-d]pyrimidin-4-amine]
< 1 nM	COc1cc2[nH]ncc2cc1Nc1ncnc2[nH]c(C(=O)O)c(Br)c12 [Example 48, 5-Bromo-4-[(6-methoxy-1H-indazol-5-yl)amino]-7H-pyrrolo[2,3-d]pyrimidine-6-carboxylic acid]
14 nM	CC(C)Oc1cc2[nH]ncc2cc1Nc1ncnc2[nH]c(C#CCO)cc12 [Example 32, 3-(4-{[6-(Propan-2-yloxy)-1H-indazol-5-yl]amino}-7H-pyrrolo[2,3-d]pyrimidin-6-yl)prop-2-yn-1-ol]
72 nM	COc1cc2[nH]ncc2cc1Nc1ncnc2[nH]cc(C(=O)O)c12 [Example 4, 4-[(6-methoxy-1H-indazol-5-yl)amino]-7H-pyrrolo[2,3-d]pyrimidine-5-carboxylic acid]
1 nM	COc1cc2[nH]ncc2cc1Nc1ncnc2[nH]c(C(=O)N3CCCC3)c(Br)c12 [Example 61, {5-Bromo-4-[(6-methoxy-1H-indazol-5-yl)amino]-7H-pyrrolo[2,3-d]pyrimidin-6-yl}(pyrrolidin-1-yl)methanone]
1 nM	COc1cc2[nH]ncc2cc1Nc1ncnc2[nH]c(C(=O)N3C[C@@H]4C[C@H]3CO4)c(Br)c12 [Example 64, {5-Bromo-4-[(6-methoxy-1H-indazol-5-yl)amino]-7H-pyrrolo[2,3-d]pyrimidin-6-yl}[(1S,4S)-2-oxa-5-azabicyclo[2.2.1]hept-5-yl]methanone]
1 nM	COc1cc2[nH]ncc2cc1Nc1ncnc2[nH]cc(C)c12 [Example 39, N-(6-Methoxy-1H-indazol-5-yl)-5-methyl-7H-pyrrolo[2,3-d]pyrimidin-4-amine]
< 1 nM	CCOC(=O)c1[nH]c2ncnc(Nc3cc4cn[nH]c4cc3OC)c2c1Br [Example 47, Ethyl 5-bromo-4-[(6-methoxy-1H-indazol-5-yl)amino]-7H-pyrrolo[2,3-d]pyrimidine-6-carboxylate]
16 nM	COc1cc2[nH]ncc2cc1Nc1ncnc2[nH]cc(C(F)(F)F)c12 [Example 49, N-(6-Methoxy-1H-indazol-5-yl)-5-(trifluoromethyl)-7H-pyrrolo[2,3-d]pyrimidin-4-amine]
30 nM	CN1CCN(C(=O)c2c[nH]c3ncnc(Nc4cc5cn[nH]c5cc4F)c23)CC1 [Example 17, {4-[(6-Fluoro-1H-indazol-5-yl)amino]-7H-pyrrolo[2,3-d]pyrimidin-5-yl}(4-methylpiperazin-1-yl)methanone]
3 nM	COc1cc2[nH]ncc2cc1Nc1ncnc2[nH]c(C(=O)N3CCOC[C@H]3C)c(Br)c12 [Example 67, {5-Bromo-4-[(6-methoxy-1H-indazol-5-yl)amino]-7H-pyrrolo[2,3-d]pyrimidin-6-yl}[(3R)-3-methylmorpholin-4-yl]methanone]
72 nM	Cc1cc2[nH]ncc2cc1Nc1ncnc2[nH]cc(C(=O)O)c12 [Example 8, 4-[(6-Methyl-1H-indazol-5-yl)amino]-7H-pyrrolo[2,3-d]pyrimidine-5-carboxylic acid]
110 nM	COc1cc2[nH]ncc2cc1Nc1ncnc2[nH]cc(C(=O)N3CCN(C)CC3)c12 [Example 5, {4-[(6-methoxy-1H-indazol-5-yl)amino]-7H-pyrrolo[2,3-d]pyrimidin-5-yl}(4-methylpiperazin-1-yl)methanone]
16 nM	COc1cc2[nH]ncc2cc1Nc1ncnc2[nH]cc(C(=O)NC(C)C)c12 [Example 6, N-isopropyl-4-[(6-methoxy-1H-indazol-5-yl)amino]-7H-pyrrolo[2,3-d]pyrimidine-5-carboxamide]
4 nM	COc1cc2[nH]ncc2cc1Nc1ncnc2[nH]c(C(=O)N3C[C@H]4C[C@@H]3CO4)c(Br)c12 [Example 65, {5-Bromo-4-[(6-methoxy-1H-indazol-5-yl)amino]-7H-pyrrolo[2,3-d]pyrimidin-6-yl}[(1R,4R)-2-oxa-5-azabicyclo[2.2.1]hept-5-yl]methanone]
117 nM	CC(C)Oc1cc2[nH]ncc2cc1Nc1ncnc2[nH]cc(C(=O)N3CCN(C)CC3)c12 [Example 29, (4-Methylpiperazin-1-yl)(4-{[6-(propan-2-yloxy)-1H-indazol-5-yl]amino}-7H-pyrrolo[2,3-d]pyrimidin-5-yl)methanone]
34 nM	Cc1cc2[nH]ncc2cc1Nc1ncnc2[nH]cc(C(=O)NC(C)C)c12 [Example 14, 4-[(6-Methyl-1H-indazol-5-yl)amino]-N-(propan-2-yl)-7H-pyrrolo[2,3-d]pyrimidine-5-carboxamide]
141 nM	CC(C)Oc1cc2[nH]ncc2cc1Nc1ncnc2[nH]cc(C(=O)N(C)C)c12 [Example 30, N,N-Dimethyl-4-{[6-(propan-2-yloxy)-1H-indazol-5-yl]amino}-7H-pyrrolo[2,3-d]pyrimidine-5-carboxamide]
194 nM	Cc1cc2[nH]ncc2cc1Nc1ncnc2[nH]cc(C(=O)N3CCN(C)CC3)c12 [Example 13, {4-[(6-Methyl-1H-indazol-5-yl)amino]-7H-pyrrolo[2,3-d]pyrimidin-5-yl}(4-methylpiperazin-1-yl)methanone]
< 1 nM	COc1cc2[nH]ncc2cc1Nc1ncnc2[nH]c(S(=O)(=O)c3ccccc3)cc12 [Example 50, N-(6-Methoxy-1H-indazol-5-yl)-6-(phenylsulfonyl)-7H-pyrrolo[2,3-d]pyrimidin-4-amine]
3 nM	CCOC(=O)c1cc2c(Nc3cc4cn[nH]c4cc3OC)ncnc2[nH]1 [Example 42, Ethyl 4-[(6-methoxy-1H-indazol-5-yl)amino]-7H-pyrrolo[2,3-d]pyrimidine-6-carboxylate]
29 nM	Fc1cc2[nH]ncc2cc1Nc1ncnc2[nH]cc(F)c12 [Example 9, 5-Fluoro-N-(6-fluoro-1H-indazol-5-yl)-7H-pyrrolo[2,3-d]pyrimidin-4-amine]
1 nM	COc1cc2[nH]ncc2cc1Nc1ncnc2[nH]c(S(=O)(=O)c3ccc(C)cc3)cc12 [Example 51, N-(6-Methoxy-1H-indazol-5-yl)-6-[(4-methylphenyl)sulfonyl]-7H-pyrrolo[2,3-d]pyrimidin-4-amine]
9 nM	CC(C)NC(=O)c1c[nH]c2ncnc(Nc3cc4cn[nH]c4cc3F)c12 [Example 18, 4-[(6-Fluoro-1H-indazol-5-yl)amino]-N-(propan-2-yl)-7H-pyrrolo[2,3-d]pyrimidine-5-carboxamide]
34 nM	CC(C)Oc1cc2[nH]ncc2cc1Nc1ncnc2[nH]c(Br)cc12 [Example 36, 6-Bromo-N-[6-(propan-2-yloxy)-1H-indazol-5-yl]-7H-pyrrolo[2,3-d]pyrimidin-4-amine]
94 nM	CC(C)NC(=O)c1c[nH]c2ncnc(Nc3cc4cn[nH]c4cc3OC(C)C)c12 [Example 31, N-(Propan-2-yl)-4-{[6-(propan-2-yloxy)-1H-indazol-5-yl]amino}-7H-pyrrolo[2,3-d]pyrimidine-5-carboxamide]
2 nM	COc1cc2[nH]ncc2cc1Nc1ncnc2[nH]c(C(=O)N3CCOCC3)c(Br)c12 [Example 58, {5-Bromo-4-[(6-methoxy-1H-indazol-5-yl)amino]-7H-pyrrolo[2,3-d]pyrimidin-6-yl}(morpholin-4-yl)methanone]
35 nM	CC(C)Oc1cc2[nH]ncc2cc1Nc1ncnc2[nH]c(CCCO)cc12 [Example 33, 3-(4-{[6-(Propan-2-yloxy)-1H-indazol-5-yl]amino}-7H-pyrrolo[2,3-d]pyrimidin-6-yl)propan-1-ol]
